# Experimental data from US20250186734A1, “METHODS AND SYSTEMS FOR AUTOMATED NEUR[…] TO EXTEND RELIEF OF TREATMENT-RESISTANT MENTAL DISORDERS” (UNIVERSITY OF PITTSBURGH-OF THE COMMONWEALTH SYSTEM OF …, priority 2022, published 2025).
# Legend:
# [1] = system: patients with treatment-resistant depression; assay: Randomized controlled trial of ketamine infusion and automated self-association training (ASAT/NT): MADRS depression severity; assay type: in vivo, human
# Excerpt: Participants. To achieve the initial recruitment target of n=150 patients, the study enrolled and randomized n=154 patients, continuing enrollment until a final sample was acquired that included the full target of n=150 patients who completed, at a minimum, (1) an infusion day, (2) a 24-hour assessment visit, and (3) ≥75% of intended Cognitive Training (active or sham NT) visits. All n=154 randomized patients were included in the reported intent-to-treat analyses. In particular, 154 adult (age 18-60) patients reporting moderate-to-severe levels of depression [Montgomery-Asberg Depression Rating Scale (MADRS; [Montgomery S A, Asberg M: A new depression scale designed to be sensitive to change. Br J Psychiatry. 1979; 134:382-9]) score 25], lower-than-normative self-reported self-esteem [i.e., scoring outside of 1SD from the normative mean on the Cognitive Triad Inventory [Beckham E E, Leber W R, Watkins J T, Boyer J L, Cook J B: Development of an instrument to measure Beck's cognitive triad: the Cognitive Triad Inventory. J Consult Clin Psychol. 1986; 54(4):566-7]“self” subscale [Anderson K W, Skidmore J R: Empirical analysis of factors in depressive cognition: the cognitive triad inventory. J Clin Psychol. 1995; 51(5):603-9; Possel P: Cognitive Triad Inventory (CTI): psychometric properties and factor structure of the German translation. J Behav Ther Exp Psychiatry. 2009; 40(2):240-7] and/or the Rosenberg Self-Esteem Scale], and at least one failed, adequate trial of an FDA-approved antidepressant medication in the current depressive episode (per Antidepressant Treatment Response Questionnaire; ATRQ [Chandler G M, losifescu DV, Pollack M H, Targum S D, Fava M: RESEARCH: Validation of the Massachusetts General Hospital Antidepressant Treatment History Questionnaire (ATRQ). CNS Neurosci Ther. 2010; 16(5):322-5]), were recruited and randomized. Any existing depression treatment regimens were required to be stably maintained beginning 4 weeks prior to screening and throughout the trial. See FIG. 10, Table S1 and Examples 6-8 below for sample characteristics.
# Assessment Timeline. An experienced, Master's level clinical rater (CRS) administered the MADRS, the study's pre-specified primary endpoint throughout the acute (30-day) study period, to assess overall depression severity. The measure was repeated at screening (used for eligibility determinations only), pre-infusion baseline (infusion −1 hour; the clinical rater then left and was not present during any intervention procedure), infusion +24 hours (prior to the first session of active/sham NT), +5, +12, +21, and +30 days. […] This study also contemplates including and analyzing neurocognitive (e.g., neuroimaging; performance-based) assessments of ketamine's impact. Adequacy of both patient and rater blinding, for both infusion and NT allocation, was assessed by self-report using a 0-100 sliding scale (0=definitely placebo/sham; 50=1 don't know; 100=definitely ketamine/active) at infusion+30 days.
# Interventions. A randomization table using permuted blocks of 3 or 6, stratified by (1) biological sex at birth and (2) modest vs. severe treatment resistance (severe=≥3 FDA-approved antidepressant trials in episode, per ATRQ), was generated by an independent statistical consultant at study start and maintained by the study pharmacist, who, at the point of randomization, conveyed the NT allocation (but not the infusion allocation) to a single study staff member who was assigned to that patient. This single staff member was tasked with opening the correct computer program to deliver the NT sessions to that patient, but was not involved in, nor present for, any outcome ratings. Blinding for all other study personnel was maintained until after the final patient's Day 30 assessment was complete.
# Infusion. Participants were randomized 2:1 to ketamine (0.5 mg/kg over 40 min) or saline (50 ml 0.9% Sodium Chloride over 40 min) infusion. […]
# [2] = system: patients with treatment-resistant depression; assay: Adverse event monitoring after infusion in the trial; assay type: in vivo, human; details: 0.5 mg/kg over 40 min infusion, monitoring for 4 hours post-infusion
# Method: Infusion. Participants were randomized 2:1 to ketamine (0.5 mg/kg over 40 min) or saline (50 ml 0.9% Sodium Chloride over 40 min) infusion. All infusions were administered by blinded, licensed nurses in a medical hospital setting with a linked ACLS-certified team, with blinded study physician (RHH) oversight and safety/adverse event monitoring sustained for 4-hours post-infusion.
# depressed patients = details: cited from earlier work
# [3] = 24 hours post-infusion, ketamine vs saline
smiles,measurement,setting,value
CNC1(c2ccccc2Cl)CCCCC1=O (centres unmarked) [ketamine],remitter rate (MADRS≤9),[1]; 24 hours post-infusion,28%
same,responder rate (≥50% decrease from pre-infusion MADRS baseline),[1]; 24 hours post-infusion,52%
same,NNT for remission,[1]; [3],4.2
same,number-needed-to-treat (NNT) for response,[1]; [3],3.7
same,"MADRS total depression score, group by time interaction, standardized β","[1]; infusion phase, pre-infusion to 24 hours post-infusion, ketamine 0.5 mg/kg over 40 min vs saline",−1.30
same,duration of the rapid antidepressant effect of a single infusion extended by Cognitive Training,[1]; single ketamine infusion followed by 8 sessions of Cognitive Training,at least 30 days
same,adverse events,[2],"mild-to-moderate, time-limited"
same,response rates in depressed patients,depressed patients; as early as 2 hours post-ketamine,55-80%
same,time within which symptoms are dramatically reduced,depressed patients; intravenous ketamine,2 to 24 h
same,duration of improvements provided by a single infusion in isolation,depressed patients; prior published work,1-2 week
same,time after which effects of a single infusion dissipate,depressed patients; single infusion,3 to 7 days
